In article PMC4489686 (Biochemistry, 2015):

Molecular target: StAhpC (Salmonella typhimurium AhpC; alkyl hydroperoxide reductase C component) (Salmonella enterica, UniProt P0A251)
Experiment: stopped-flow Trp fluorescence, double-exponential fit
Format: biochemical
Conditions: reduced enzyme, no reductase; pH 7.0, 25 °C; peroxidatic Cys46

Sequence of StAhpC (Salmonella typhimurium AhpC; alkyl hydroperoxide reductase C component) (P0A251 2-187): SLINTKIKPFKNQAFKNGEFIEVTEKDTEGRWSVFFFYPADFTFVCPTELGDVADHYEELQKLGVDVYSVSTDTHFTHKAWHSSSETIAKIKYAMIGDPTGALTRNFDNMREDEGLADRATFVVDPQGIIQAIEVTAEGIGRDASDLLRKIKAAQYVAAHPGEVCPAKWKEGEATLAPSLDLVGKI

Compound	slope of kobs vs [ROOH], first phase
CCOO [ethyl hydroperoxide]	red those for ethyl hydroperoxide
CC(C)(OO)c1ccccc1 [cumene hydroperoxide]	black those for cumene hydroperoxide
